These are literature values, as cited in patent US20190167601A1, “APPARATUS AND METHOD FOR ZERO ORDER DRUG DELIVERY FROM MULTILAYER AMPHIPHILIC CO-NETWORKS” (The University of Akron, priority 2016, published 2019).

Where a name gives a salt, the structure may show the parent alone.

Turning to `COc1c(N2C[C@@H]3CCCN[C@@H]3C2)c(F)cc2c(=O)c(C(=O)O)cn(C3CC3)c12` [Moxifloxacin Hydrochloride], the “maximum drug solubility in water” value was 168 µg/mL.

As to `CC(C)OC(=O)CCC/C=C\C[C@@H]1[C@@H](CC[C@@H](O)CCc2ccccc2)[C@H](O)C[C@@H]1O` [Latanoprost], the “maximum drug solubility in water” value was 8000 µg/mL.
